In publication PMC10412597, “Small molecule branched-chain ketoacid dehydrogenase kinase (BDK) inhibitors with opposing effects on BDK protein levels” (Nature Communications, 2023):

Tests used:
Design in all cases: Cerep Bioprint off-target panel, functional receptor agonism or antagonism
[1] = target: T1, Histamine H3 (Homo sapiens, UniProt Q9Y5N1); conditions: agonist
T1 construct: gene HRH3
Method: (§1) To discover a potent and selective BDK inhibitor, a subset of the Pfizer compound collection was screened. […] Off target activity was assessed in both CEREP and kinase panels (Supplementary Tables 2, 3).

[2] = target: T2, Adenosine A1 Receptor (Homo sapiens, UniProt P30542); conditions: agonist
T2 construct: gene ADORA1
T2 sequence (P30542 whole entry): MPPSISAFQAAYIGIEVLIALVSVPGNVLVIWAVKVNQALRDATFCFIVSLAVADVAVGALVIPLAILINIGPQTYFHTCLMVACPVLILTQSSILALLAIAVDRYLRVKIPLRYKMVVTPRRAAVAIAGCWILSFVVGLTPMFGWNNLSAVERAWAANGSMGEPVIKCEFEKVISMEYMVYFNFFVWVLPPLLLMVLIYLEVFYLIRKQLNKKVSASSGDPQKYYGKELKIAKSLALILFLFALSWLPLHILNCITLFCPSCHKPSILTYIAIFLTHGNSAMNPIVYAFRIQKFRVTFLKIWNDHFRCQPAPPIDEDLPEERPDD
Method: as §1

[3] = target: T3, Dopamine D1 (Homo sapiens, UniProt P21728)
T3 construct: gene DRD1
T3 sequence (P21728 whole entry): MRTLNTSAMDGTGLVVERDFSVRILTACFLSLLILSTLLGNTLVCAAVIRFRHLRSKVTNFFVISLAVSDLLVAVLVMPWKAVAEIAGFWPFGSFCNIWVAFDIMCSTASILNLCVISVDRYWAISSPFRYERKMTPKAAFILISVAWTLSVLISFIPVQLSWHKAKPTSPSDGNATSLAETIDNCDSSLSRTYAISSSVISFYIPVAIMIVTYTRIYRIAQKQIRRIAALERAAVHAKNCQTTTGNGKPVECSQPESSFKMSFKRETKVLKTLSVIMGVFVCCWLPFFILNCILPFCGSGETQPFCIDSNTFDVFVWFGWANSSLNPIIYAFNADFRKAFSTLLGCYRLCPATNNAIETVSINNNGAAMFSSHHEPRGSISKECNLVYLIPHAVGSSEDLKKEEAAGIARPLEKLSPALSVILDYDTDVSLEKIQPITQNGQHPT
Method: as §1

[4] = target: T4, Cholecystokinin 2 (Homo sapiens, UniProt P32239); conditions: agonist
T4 construct: gene CCKBR
T4 sequence (P32239 whole entry): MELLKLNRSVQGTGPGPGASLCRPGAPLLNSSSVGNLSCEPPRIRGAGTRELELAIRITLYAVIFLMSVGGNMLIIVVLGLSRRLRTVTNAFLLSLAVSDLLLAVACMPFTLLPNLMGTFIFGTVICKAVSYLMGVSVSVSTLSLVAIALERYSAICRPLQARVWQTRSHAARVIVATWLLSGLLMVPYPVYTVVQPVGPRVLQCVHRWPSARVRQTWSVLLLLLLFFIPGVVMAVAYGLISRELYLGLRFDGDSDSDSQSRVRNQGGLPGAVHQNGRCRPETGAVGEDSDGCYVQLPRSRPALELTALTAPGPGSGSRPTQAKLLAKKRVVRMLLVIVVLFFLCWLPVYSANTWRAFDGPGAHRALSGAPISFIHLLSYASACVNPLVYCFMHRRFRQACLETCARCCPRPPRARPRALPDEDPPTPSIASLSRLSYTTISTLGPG
Method: as §1

[5] = target: T5, Serotonin 5-HT1a Receptor (Homo sapiens, UniProt P08908); conditions: agonist
T5 construct: gene HTR1A
T5 sequence (P08908 whole entry): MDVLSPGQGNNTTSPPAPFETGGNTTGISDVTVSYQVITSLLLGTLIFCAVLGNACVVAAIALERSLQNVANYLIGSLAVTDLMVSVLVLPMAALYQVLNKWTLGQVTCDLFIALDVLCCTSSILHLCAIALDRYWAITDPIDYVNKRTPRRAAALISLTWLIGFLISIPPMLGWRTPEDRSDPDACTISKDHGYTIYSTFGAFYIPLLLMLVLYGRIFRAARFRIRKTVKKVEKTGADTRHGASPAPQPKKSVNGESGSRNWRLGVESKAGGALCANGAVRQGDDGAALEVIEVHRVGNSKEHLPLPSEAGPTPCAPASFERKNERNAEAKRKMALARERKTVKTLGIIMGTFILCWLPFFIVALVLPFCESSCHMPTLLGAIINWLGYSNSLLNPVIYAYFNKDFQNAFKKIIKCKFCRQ
Method: as §1

[6] = target: T6, Adrenergic Beta 1 Adrenoceptor (Homo sapiens, UniProt P08588)
T6 construct: gene ADRB1
T6 sequence (P08588 whole entry): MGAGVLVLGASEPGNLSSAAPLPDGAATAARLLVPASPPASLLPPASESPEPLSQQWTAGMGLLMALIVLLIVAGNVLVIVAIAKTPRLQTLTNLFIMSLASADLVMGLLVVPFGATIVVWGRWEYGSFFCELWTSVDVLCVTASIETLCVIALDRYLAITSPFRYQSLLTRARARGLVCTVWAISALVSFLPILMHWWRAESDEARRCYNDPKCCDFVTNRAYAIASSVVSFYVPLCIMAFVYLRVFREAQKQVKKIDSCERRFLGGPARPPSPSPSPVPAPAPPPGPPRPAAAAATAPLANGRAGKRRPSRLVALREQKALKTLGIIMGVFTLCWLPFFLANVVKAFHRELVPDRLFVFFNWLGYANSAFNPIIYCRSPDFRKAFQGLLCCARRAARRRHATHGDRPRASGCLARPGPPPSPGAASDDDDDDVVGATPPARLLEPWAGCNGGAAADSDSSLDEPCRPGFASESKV
Method: as §1

[7] = target: T7, Muscarinic 1 (Homo sapiens, UniProt P11229)
T7 construct: gene CHRM1
T7 sequence (P11229 1-460): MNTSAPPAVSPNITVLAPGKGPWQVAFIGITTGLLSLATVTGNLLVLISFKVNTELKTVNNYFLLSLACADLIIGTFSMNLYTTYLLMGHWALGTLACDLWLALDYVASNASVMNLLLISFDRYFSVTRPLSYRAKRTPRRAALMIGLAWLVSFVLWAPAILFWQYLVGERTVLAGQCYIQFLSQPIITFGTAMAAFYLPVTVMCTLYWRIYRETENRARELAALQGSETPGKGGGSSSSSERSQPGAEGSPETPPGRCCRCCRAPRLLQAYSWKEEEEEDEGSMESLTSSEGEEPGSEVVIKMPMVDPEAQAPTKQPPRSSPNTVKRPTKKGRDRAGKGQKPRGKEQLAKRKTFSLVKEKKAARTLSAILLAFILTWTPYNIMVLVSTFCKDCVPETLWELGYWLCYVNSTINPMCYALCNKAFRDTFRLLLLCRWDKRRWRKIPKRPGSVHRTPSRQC
Method: as §1

[8] = target: T8, Adrenergic Alpha 2a receptor (Homo sapiens, UniProt P08913); conditions: agonist
T8 construct: gene ADRA2A
T8 sequence (P08913 whole entry): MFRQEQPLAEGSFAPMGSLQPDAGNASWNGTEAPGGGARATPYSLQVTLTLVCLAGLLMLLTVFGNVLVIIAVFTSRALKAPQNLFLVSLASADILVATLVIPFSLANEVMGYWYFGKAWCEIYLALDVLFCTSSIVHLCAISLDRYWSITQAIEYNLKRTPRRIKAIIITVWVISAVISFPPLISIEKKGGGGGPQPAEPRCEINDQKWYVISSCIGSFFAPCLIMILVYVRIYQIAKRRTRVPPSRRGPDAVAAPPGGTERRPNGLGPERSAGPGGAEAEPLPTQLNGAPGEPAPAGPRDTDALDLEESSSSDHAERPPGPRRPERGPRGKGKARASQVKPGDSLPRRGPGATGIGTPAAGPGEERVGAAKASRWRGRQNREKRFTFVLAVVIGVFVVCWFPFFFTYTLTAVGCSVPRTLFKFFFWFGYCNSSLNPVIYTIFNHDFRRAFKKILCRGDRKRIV
Method: as §1

[9] = target: T9, Adrenergic Alpha 2b Adrenoceptor (Homo sapiens, UniProt P18089)
T9 construct: gene ADRA2B
T9 sequence (P18089 1-450): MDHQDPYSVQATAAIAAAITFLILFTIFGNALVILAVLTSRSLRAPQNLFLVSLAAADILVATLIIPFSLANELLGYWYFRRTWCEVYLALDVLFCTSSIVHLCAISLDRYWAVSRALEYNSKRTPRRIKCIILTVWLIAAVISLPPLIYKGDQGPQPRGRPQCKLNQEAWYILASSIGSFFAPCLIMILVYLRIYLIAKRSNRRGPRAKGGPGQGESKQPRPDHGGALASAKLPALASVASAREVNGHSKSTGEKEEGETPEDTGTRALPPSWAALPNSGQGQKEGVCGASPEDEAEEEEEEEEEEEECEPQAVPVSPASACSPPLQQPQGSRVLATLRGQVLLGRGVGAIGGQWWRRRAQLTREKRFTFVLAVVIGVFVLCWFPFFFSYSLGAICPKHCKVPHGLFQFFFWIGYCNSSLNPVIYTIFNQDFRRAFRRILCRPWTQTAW
Method: as §1

[10] = target: T10, Histamine H1 (Homo sapiens, UniProt P35367)
T10 construct: gene HRH1
T10 sequence (P35367 whole entry): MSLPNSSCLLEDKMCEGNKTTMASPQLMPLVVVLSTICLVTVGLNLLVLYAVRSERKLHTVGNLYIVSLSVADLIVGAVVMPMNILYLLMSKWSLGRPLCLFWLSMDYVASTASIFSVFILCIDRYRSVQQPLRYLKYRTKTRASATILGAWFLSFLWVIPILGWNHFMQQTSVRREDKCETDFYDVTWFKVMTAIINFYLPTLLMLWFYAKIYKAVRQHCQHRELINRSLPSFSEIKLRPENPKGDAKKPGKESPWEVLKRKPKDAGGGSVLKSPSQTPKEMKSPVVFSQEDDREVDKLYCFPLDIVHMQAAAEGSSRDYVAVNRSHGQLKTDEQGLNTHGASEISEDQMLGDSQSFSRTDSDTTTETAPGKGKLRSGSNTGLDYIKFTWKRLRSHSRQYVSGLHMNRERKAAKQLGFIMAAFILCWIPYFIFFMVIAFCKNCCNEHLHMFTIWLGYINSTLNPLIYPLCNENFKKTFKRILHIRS
Method: as §1

[11] = target: T11, Serotonin 5-HT2b (Homo sapiens, UniProt P41595); conditions: agonist
T11 construct: gene HTR2B
T11 sequence (P41595 whole entry): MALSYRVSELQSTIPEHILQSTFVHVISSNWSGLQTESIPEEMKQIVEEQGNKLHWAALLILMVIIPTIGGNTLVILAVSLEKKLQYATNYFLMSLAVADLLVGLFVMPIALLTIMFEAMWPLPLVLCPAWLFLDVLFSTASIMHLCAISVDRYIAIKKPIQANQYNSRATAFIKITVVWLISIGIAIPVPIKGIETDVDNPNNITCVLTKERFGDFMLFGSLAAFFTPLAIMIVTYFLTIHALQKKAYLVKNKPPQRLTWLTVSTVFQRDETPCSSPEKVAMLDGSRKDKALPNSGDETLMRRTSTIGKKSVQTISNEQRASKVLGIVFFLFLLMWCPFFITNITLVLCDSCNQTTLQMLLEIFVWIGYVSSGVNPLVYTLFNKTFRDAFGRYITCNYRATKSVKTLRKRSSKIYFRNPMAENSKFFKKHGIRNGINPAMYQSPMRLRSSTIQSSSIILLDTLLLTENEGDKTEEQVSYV
Method: as §1

[12] = target: T12, Angiotensin 1 (Homo sapiens, UniProt P30556)
T12 construct: gene AGTR1
T12 sequence (P30556 1-359): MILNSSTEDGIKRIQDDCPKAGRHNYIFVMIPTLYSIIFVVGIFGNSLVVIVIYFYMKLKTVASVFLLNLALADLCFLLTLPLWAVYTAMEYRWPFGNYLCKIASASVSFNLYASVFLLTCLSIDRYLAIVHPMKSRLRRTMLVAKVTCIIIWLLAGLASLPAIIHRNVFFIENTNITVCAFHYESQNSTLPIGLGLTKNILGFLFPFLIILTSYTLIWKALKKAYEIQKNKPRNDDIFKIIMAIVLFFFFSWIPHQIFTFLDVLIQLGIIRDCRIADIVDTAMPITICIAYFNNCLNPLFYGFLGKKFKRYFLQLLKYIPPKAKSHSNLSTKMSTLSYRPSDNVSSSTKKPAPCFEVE
Method: as §1

[13] = target: T13, Adrenergic Beta 2 Adrenoceptor (Homo sapiens, UniProt P07550)
T13 construct: gene ADRB2
T13 sequence (P07550 whole entry): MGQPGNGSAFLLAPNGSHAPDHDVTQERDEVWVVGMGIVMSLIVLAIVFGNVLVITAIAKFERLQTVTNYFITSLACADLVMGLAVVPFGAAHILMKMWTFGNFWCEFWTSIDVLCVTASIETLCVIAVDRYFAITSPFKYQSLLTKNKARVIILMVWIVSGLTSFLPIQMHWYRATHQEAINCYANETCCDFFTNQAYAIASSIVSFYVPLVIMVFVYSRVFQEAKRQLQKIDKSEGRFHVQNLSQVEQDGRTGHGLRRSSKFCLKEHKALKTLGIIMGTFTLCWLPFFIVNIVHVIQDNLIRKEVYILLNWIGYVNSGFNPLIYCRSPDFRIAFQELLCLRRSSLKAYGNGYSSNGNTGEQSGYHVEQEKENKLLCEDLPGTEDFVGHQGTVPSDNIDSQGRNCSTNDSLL
Method: as §1

T1 sequence (Q9Y5N1 whole entry): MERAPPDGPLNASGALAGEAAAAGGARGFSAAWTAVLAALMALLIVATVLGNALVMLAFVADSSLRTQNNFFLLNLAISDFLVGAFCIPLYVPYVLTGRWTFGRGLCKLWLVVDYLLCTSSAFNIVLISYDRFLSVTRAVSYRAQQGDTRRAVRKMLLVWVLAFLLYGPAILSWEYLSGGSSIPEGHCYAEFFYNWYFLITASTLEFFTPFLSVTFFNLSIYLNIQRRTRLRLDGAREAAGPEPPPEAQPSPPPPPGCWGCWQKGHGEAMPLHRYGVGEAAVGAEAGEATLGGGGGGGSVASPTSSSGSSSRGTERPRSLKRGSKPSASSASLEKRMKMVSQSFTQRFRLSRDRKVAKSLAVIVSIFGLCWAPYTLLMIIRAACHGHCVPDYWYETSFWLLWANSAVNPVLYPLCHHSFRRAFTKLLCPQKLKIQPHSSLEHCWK

For `O=C(O)c1sc2cc(F)sc2c1Cl` [PF-07208254, 3-chloro-5-fluorothieno[3,2-b]thiophene-2-carboxylic acid], the “% (agonism) PF-07208254” value ([1]; 100 µM) was 15%, the “% (agonism) PF-07208254” value ([2]; 100 µM) was 0% and the “% (agonism) PF-07208254” value ([3]; 100 µM, agonist) was -4%. The “% Inhibition (antagonism) PF-07208254” value ([3]; 100 µM, antagonist) was -5%, the “% (agonism) PF-07208254” value ([4]; 100 µM) was 0% and the “% (agonism) PF-07208254” value ([5]; 100 µM) was -1%. The “% (agonism) PF-07208254” value ([6]; 100 µM, agonist) was 2%, the “% Inhibition (antagonism) PF-07208254” value ([6]; 100 µM, antagonist) was 8% and the “% (agonism) PF-07208254” value ([7]; 100 µM, agonist) was -1%. The “% Inhibition (antagonism) PF-07208254” value ([7]; 100 µM, antagonist) was 0%, the “% (agonism) PF-07208254” value ([8]; 100 µM) was -1% and the “% (agonism) PF-07208254” value ([9]; 100 µM, agonist) was -4%. For the same compound, the “% Inhibition (antagonism) PF-07208254” value ([9]; 100 µM, antagonist) was -2%, the “% (agonism) PF-07208254” value ([10]; 100 µM, agonist) was -1% and the “% Inhibition (antagonism) PF-07208254” value ([10]; 100 µM, antagonist) was 17%. For the same compound, the “% (agonism) PF-07208254” value ([11]; 100 µM) was -5%, the “% (agonism) PF-07208254” value ([12]; 100 µM, agonist) was 3% and the “% Inhibition (antagonism) PF-07208254” value ([12]; 100 µM, antagonist) was 18%. The “% (agonism) PF-07208254” value ([13]; 100 µM, agonist) was -5% and the “% Inhibition (antagonism) PF-07208254” value ([13]; 100 µM, antagonist) was 10%.
With `CCC1(COc2ccc(-c3csc(-c4ccccc4C(=O)O)n3)cn2)CC1` [PF-07247685, 2-(4-{6-[(1-ethylcyclopropyl)methoxy]pyridin-3-yl}-1,3-thiazol-2-yl)benzoic acid] the “% (agonism) PF-07247685” value ([1]; 10 µM) was 4%, the “% (agonism) PF-07247685” value ([2]; 10 µM) was 0% and the “% (agonism) PF-07247685” value ([3]; 10 µM, agonist) was 4%. The “% Inhibition (antagonism) PF-07247685” value ([3]; 10 µM, antagonist) was 5%, the “% (agonism) PF-07247685” value ([4]; 10 µM) was -8% and the “% (agonism) PF-07247685” value ([5]; 10 µM) was -1%. The “% (agonism) PF-07247685” value ([6]; 10 µM, agonist) was 6%, the “% Inhibition (antagonism) PF-07247685” value ([6]; 10 µM, antagonist) was 27% and the “% (agonism) PF-07247685” value ([7]; 10 µM, agonist) was 1%. For the same compound, the “% Inhibition (antagonism) PF-07247685” value ([7]; 10 µM, antagonist) was 9%, the “% (agonism) PF-07247685” value ([8]; 10 µM) was 0% and the “% (agonism) PF-07247685” value ([9]; 10 µM, agonist) was -1%. For the same compound, the “% Inhibition (antagonism) PF-07247685” value ([9]; 10 µM, antagonist) was -1%, the “% (agonism) PF-07247685” value ([10]; 10 µM, agonist) was -5% and the “% Inhibition (antagonism) PF-07247685” value ([10]; 10 µM, antagonist) was -2%. For the same compound, the “% (agonism) PF-07247685” value ([11]; 10 µM) was -5%, the “% (agonism) PF-07247685” value ([12]; 10 µM, agonist) was -8% and the “% Inhibition (antagonism) PF-07247685” value ([12]; 10 µM, antagonist) was 5%. For the same compound, the “% (agonism) PF-07247685” value ([13]; 10 µM, agonist) was -6% and the “% Inhibition (antagonism) PF-07247685” value ([13]; 10 µM, antagonist) was 3%.
